How the values were obtained:
[1] = target: Serine/threonine-protein kinase 10 (Homo sapiens) (UniProt O94804); test: STK10 SGC Tm panel (DSF); settings: for ΔTm: Compound concentration 10.0 uM
[2] = target: T1, Muscarinic acetylcholine receptor M1 (Homo sapiens) (UniProt P11229); settings: Compound concentration 10.0 uM
T1 sequence (whole entry): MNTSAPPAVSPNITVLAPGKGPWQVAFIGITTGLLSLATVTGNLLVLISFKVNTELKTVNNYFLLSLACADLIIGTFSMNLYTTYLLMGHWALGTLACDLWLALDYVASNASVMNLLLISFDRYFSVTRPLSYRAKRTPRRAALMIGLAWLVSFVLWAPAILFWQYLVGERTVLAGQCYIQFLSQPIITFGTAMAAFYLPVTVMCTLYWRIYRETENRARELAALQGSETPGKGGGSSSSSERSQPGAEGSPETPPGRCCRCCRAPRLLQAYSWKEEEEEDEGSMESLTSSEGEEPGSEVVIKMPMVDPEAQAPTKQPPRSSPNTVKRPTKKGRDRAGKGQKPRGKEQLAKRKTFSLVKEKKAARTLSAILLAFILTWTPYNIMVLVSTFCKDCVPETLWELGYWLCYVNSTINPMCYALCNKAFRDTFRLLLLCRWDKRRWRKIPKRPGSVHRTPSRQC

[3] = target: Serine/threonine-protein kinase 24 (Homo sapiens) (UniProt Q9Y6E0); test: MST3 SGC Tm panel (DSF); settings: for ΔTm: Compound concentration 10.0 uM
[4] = target: D(1B) dopamine receptor (Homo sapiens) (UniProt P21918); settings: Compound concentration 10.0 uM
D(1B) dopamine receptor (Homo sapiens), sequence (P21918 whole entry): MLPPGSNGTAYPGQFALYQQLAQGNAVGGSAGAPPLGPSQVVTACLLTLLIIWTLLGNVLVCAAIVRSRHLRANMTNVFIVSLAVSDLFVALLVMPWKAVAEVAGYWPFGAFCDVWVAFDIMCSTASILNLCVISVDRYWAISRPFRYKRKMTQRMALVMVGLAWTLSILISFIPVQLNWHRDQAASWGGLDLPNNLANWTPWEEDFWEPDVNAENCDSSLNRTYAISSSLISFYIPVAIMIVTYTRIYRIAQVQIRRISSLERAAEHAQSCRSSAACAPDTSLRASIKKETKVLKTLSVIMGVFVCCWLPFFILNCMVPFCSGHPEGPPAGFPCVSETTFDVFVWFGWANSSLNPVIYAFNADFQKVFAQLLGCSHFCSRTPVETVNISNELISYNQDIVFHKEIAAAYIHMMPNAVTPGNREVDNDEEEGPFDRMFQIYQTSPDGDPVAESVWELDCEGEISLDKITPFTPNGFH

[5] = target: T2, Muscarinic acetylcholine receptor M4 (Homo sapiens) (UniProt P08173); settings: Compound concentration 10.0 uM
T2 sequence (whole entry): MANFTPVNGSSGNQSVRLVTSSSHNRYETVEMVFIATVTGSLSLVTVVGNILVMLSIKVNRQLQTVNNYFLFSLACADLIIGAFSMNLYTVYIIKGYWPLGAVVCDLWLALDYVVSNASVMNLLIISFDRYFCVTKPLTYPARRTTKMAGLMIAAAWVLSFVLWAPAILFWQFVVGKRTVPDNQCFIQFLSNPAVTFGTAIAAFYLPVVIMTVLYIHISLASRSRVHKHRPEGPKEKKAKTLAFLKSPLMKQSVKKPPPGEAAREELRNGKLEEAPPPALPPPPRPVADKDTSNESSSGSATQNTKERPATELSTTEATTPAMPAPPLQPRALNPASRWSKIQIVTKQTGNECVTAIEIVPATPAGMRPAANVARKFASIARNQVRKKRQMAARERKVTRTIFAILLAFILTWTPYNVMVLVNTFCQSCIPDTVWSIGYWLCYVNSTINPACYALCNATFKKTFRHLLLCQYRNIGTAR

[6] = target: SRSF protein kinase 1 (Homo sapiens) (UniProt Q96SB4); test: SRPK1 SGC Tm panel (DSF); settings: for ΔTm: Compound concentration 10.0 uM
SRSF protein kinase 1 (Homo sapiens), sequence (Q96SB4 whole entry): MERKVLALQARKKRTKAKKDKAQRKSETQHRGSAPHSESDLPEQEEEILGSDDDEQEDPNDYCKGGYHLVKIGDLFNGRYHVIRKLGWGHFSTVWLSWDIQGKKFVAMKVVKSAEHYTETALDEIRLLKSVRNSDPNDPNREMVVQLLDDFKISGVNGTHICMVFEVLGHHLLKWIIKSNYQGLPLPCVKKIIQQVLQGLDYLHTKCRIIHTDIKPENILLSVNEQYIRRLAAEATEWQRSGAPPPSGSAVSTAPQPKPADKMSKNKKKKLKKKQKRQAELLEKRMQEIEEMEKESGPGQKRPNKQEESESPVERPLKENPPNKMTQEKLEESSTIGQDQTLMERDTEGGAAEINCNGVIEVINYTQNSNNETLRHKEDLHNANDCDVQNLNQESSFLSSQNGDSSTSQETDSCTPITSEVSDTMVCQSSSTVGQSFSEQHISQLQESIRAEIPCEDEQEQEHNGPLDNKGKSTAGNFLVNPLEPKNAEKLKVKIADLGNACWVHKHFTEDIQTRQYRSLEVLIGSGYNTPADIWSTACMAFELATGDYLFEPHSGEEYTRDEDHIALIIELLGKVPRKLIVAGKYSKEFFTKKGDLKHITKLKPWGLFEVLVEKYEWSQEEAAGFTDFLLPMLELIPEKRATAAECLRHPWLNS

[7] = target: T3, 5-hydroxytryptamine receptor 3A (Homo sapiens) (UniProt P46098); settings: Compound concentration 10.0 uM
T3 sequence (whole entry): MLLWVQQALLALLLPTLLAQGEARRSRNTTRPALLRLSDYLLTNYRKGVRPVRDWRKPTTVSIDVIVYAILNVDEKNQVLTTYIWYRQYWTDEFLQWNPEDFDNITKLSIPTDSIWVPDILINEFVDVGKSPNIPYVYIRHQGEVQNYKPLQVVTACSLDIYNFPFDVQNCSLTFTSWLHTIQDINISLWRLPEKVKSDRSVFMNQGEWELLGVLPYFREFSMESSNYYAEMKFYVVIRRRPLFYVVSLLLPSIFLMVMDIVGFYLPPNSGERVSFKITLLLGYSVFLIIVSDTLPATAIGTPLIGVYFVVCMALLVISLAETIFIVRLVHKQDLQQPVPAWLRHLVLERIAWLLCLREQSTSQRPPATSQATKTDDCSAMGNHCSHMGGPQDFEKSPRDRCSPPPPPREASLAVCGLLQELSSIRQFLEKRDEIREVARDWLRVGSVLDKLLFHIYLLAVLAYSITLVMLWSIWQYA

[8] = target: T4, Alpha-2C adrenergic receptor (Homo sapiens) (UniProt P18825); settings: Compound concentration 10.0 uM
T4 sequence (whole entry): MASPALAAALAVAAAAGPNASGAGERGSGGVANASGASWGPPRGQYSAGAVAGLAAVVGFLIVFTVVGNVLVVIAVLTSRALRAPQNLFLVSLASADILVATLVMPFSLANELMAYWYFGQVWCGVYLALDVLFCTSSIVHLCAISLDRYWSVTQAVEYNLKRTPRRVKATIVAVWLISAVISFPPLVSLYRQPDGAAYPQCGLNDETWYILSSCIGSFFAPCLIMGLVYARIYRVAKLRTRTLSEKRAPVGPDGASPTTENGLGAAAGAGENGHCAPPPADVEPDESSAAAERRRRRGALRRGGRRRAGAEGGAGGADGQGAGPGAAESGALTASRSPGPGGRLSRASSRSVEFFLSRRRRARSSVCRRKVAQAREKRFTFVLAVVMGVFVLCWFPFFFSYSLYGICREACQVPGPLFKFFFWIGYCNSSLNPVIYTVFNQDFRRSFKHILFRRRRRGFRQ

[9] = target: T5, Ferrochelatase, mitochondrial (Homo sapiens) (UniProt P22830); test: FECHHS SGC Tm panel (DSF); settings: for ΔTm: Compound concentration 10.0 uM
T5 sequence (whole entry): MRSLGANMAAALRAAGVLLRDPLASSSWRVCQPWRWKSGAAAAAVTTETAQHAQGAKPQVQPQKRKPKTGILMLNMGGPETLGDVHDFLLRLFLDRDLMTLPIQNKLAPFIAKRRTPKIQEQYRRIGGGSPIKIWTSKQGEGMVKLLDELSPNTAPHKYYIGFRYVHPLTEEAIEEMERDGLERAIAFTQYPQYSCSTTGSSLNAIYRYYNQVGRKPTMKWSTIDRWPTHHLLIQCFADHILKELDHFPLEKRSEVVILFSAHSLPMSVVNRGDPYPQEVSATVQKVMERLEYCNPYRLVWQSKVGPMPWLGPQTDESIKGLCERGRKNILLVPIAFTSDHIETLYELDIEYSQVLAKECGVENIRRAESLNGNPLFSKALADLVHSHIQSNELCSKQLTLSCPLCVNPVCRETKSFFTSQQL

[10] = target: Tyrosine-protein kinase Fes/Fps (Homo sapiens) (UniProt P07332); test: FES SGC Tm panel (DSF); settings: for ΔTm: Compound concentration 10.0 uM
Tyrosine-protein kinase Fes/Fps (Homo sapiens), sequence (P07332 whole entry): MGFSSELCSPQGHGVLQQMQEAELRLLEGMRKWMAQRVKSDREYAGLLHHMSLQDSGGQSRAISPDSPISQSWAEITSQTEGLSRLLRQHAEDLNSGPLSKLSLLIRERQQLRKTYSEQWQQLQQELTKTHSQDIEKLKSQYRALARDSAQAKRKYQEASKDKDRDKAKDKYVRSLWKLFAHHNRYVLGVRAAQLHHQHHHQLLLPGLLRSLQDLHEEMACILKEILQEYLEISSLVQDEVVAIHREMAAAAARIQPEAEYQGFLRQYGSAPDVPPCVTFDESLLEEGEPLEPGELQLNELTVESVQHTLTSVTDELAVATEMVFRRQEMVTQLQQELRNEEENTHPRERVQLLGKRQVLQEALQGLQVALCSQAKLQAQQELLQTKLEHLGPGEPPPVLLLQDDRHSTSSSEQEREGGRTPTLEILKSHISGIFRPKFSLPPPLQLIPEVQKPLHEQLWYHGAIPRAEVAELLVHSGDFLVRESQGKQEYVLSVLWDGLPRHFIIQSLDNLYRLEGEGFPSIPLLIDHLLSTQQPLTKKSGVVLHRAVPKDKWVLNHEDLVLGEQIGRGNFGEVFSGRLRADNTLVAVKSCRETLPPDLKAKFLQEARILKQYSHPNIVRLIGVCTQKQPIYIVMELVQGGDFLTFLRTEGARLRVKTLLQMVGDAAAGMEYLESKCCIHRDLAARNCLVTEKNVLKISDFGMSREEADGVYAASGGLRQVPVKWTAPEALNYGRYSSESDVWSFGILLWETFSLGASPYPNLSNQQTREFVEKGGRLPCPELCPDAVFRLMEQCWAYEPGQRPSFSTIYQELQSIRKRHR

[11] = target: Serine/threonine-protein kinase MRCK alpha (Homo sapiens) (UniProt Q5VT25); test: CDC42BPA SGC Tm panel (DSF); settings: for ΔTm: Compound concentration 10.0 uM
Serine/threonine-protein kinase MRCK alpha (Homo sapiens), sequence (Q5VT25 whole entry, looked up): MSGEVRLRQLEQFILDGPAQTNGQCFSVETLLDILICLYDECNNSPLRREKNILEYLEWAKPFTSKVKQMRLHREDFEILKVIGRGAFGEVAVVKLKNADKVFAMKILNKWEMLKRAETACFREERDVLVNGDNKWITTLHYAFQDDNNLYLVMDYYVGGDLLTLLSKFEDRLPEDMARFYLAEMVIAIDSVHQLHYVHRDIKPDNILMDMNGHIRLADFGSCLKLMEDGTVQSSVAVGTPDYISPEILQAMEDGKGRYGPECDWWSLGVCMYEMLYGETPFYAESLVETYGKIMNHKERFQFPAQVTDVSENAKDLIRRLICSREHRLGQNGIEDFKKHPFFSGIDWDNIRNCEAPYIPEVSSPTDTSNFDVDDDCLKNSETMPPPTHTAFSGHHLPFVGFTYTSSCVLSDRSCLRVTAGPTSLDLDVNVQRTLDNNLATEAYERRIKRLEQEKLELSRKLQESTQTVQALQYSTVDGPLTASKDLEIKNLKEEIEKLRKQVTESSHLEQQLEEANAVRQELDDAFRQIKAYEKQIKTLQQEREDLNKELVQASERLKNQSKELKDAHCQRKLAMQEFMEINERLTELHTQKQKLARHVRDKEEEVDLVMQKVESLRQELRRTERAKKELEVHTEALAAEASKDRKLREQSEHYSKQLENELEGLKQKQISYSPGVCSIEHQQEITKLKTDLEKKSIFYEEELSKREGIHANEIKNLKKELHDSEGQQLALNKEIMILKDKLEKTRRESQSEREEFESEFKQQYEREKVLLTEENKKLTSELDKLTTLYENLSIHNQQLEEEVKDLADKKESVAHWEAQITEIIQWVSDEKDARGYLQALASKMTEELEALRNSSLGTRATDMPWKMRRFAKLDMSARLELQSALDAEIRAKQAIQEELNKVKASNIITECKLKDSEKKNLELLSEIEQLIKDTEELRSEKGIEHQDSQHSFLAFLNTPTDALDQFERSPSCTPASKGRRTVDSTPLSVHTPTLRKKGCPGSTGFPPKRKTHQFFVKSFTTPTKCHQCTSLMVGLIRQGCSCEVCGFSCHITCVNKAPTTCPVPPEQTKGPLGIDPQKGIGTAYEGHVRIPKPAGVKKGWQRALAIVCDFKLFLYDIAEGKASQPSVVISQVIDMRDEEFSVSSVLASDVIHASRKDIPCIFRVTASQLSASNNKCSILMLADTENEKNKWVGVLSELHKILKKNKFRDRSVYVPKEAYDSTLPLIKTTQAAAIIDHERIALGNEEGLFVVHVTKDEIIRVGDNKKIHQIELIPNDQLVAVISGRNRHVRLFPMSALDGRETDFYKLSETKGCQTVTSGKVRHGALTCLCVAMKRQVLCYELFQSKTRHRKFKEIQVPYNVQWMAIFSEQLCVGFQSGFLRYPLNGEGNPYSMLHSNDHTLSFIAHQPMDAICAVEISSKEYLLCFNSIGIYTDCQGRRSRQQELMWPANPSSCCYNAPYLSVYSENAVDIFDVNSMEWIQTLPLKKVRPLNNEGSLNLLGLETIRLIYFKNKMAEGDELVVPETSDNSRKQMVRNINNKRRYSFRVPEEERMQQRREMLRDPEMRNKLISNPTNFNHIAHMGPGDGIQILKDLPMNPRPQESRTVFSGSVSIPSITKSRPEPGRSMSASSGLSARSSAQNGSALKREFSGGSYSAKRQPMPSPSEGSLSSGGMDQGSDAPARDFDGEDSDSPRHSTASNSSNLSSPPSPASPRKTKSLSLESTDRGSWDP

[12] = target: Sigma intracellular receptor 2 (Homo sapiens) (UniProt Q5BJF2); settings: Compound concentration 10.0 uM
Sigma intracellular receptor 2 (Homo sapiens), sequence (Q5BJF2 whole entry): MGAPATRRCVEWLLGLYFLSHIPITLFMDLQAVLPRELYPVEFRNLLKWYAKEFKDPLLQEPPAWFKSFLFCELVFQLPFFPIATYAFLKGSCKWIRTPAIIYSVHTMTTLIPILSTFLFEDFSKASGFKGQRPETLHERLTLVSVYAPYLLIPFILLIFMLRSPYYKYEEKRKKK

Serine/threonine-protein kinase 10 (Homo sapiens), sequence (O94804 whole entry, looked up): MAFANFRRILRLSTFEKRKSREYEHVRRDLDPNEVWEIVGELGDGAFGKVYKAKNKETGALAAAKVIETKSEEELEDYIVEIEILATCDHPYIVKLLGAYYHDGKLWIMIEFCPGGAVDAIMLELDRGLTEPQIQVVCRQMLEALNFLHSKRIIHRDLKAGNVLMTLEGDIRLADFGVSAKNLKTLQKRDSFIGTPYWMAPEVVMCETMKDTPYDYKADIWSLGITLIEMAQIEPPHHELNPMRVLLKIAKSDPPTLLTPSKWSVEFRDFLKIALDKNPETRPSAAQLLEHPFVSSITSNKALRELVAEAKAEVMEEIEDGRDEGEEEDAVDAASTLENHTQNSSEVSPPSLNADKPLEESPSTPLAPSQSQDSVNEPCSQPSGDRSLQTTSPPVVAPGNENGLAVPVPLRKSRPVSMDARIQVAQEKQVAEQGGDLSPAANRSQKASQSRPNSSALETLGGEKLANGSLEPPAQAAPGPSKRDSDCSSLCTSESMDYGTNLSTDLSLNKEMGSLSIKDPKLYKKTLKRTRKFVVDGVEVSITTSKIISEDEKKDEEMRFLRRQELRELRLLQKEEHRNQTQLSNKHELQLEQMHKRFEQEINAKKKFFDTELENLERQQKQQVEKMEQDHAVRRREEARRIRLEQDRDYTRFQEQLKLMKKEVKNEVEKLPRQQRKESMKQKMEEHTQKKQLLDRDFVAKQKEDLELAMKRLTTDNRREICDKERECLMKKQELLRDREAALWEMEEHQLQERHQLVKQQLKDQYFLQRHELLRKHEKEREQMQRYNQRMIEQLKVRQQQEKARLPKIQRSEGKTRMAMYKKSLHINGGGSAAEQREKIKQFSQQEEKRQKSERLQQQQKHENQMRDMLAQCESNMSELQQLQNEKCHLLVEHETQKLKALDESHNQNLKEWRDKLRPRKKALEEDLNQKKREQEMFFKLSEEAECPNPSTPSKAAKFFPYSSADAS

SMILES | delta Tm Staurosporine positive control [1] | ΔTm [1] | inhibition [2] | delta Tm Staurosporine positive control [3] | ΔTm [3] | inhibition [4] | inhibition [5] | delta Tm Staurosporine positive control [6] | ΔTm [6] | inhibition [7] | inhibition [8] | delta Tm Staurosporine positive control [9] | ΔTm [9] | delta Tm Staurosporine positive control [10] | ΔTm [10] | delta Tm Staurosporine positive control [11] | ΔTm [11] | inhibition [12]
CCC[C@@H]1CNCc2c1[nH]c(=O)c(C#N)c2N1CCC2(CC1)CC2 | 22.2 | -2.3 | -0.37% | 7.85 | -2.14 | 4.19% | -5.05% | 7.17 | -0.188 | 5.44% | -0.07% | 2.89 | -1.34 | 9.22 | -0.389 | 3.2 | 0.159 | -4.19%
CCC[C@H]1CNCc2c1[nH]c(=O)c(C#N)c2N1CCC2(CC1)CC2 | 22.2 | -2.2 | 0.28% | 7.85 | -2.08 | 2.11% | -3.14% | 7.17 | -0.269 | 7.4% | 2.5% | 2.89 | -1.08 | 9.22 | -0.11 | 3.2 | 0.0908 | -5%

— ChEMBL document CHEMBL5303765, “Data for DCP probe BAY-7081” (2023)
